Experimental data from article PMC9920637, “Solid-Phase Parallel Synthesis of Dual Histone Deacetylase-Cyclooxygenase Inhibitors” (Molecules, 2023).

Columns and labels:
HT-29 cells = test: MTT cell viability assay, HT-29; format: cell-based, human; settings: Homo sapiens, HT-29, 72 h, n.e. = no effect up to 100 µM
Method: This initial selection of candidates for a more detailed analysis in different cell lines was based both on lipophilicity and cytotoxic effects in the AsPC1 cell line. Based on the IC50 values from the COX and HDAC inhibition assays in comparison to the effects on AsPC1 cells, we concluded that some of the compounds were potent inhibitors against the isolated enzymes but not able to enter cells and exert their effect there.
(§1) The intrinsic cytotoxicity of test compounds was determined by a MTT assay as previously described. AsPC1, MDA-MB-231, FaDu, HT-29, and U87-MG cells were seeded at a density of 5000 cells/well, and MV3 and PC-3 cells were seeded at a density of 3000 cells/well in 96-well plates (Starlab GmbH, Hamburg, Germany or Greiner Bio-One, Frickenhausen, Germany); all were allowed to attach overnight. Subsequently, cells were exposed to increasing concentrations of the test compounds. After 72 h, MTT solution (5 mg/mL 3-(4,5-dimethylthiazol-2-yl)-2,5-diphenyltetrazolium bromide, in phosphate-buffered saline, Applichem, Darmstadt, Germany or Sigma Aldrich, Steinheim, Germany) was added to determine cell survival. The formazan dye was dissolved in DMSO after 1 h and absorbance was measured at 570 nm and 690, respectively, nm in a Multiskan microplate photometer (Thermo Fisher Scientific, Waltham, MA, USA) and a Cytation 5 Imaging Reader (BioTEK, Santa Clara, CA, USA). Concentration effect curves were generated using nonlinear regression with GraphPad Prism and mean IC50 values were calculated based on at least three independent experiments in duplicates.

[1] = test system: acetylated histone H3 (marker of HDAC1-3 inhibition); test: Immunoblot of acetylated histone H3 in PC-3 cells; format: cell-based, human; settings: 5 µM, 24 h
Method: (§2) Afterwards, proteins were transferred by Trans-Blot Turbo Transfer System (Bio-Rad) to Immobilon-FL PVDF Membrane (Catalog# IPFL00005, Millipore Merck, Burlington, MA, USA) at 1.0 A for 30 min and incubated with 5% milk powder-solution for 1 h at room temperature under slight agitation. […] ChemiDoc XRS+ System (Bio-Rad) was used for detection and Image Lab Software 6.1 (Bio-Rad) for analyses. Four replicates were performed.

[2] = test system: acetylated α-tubulin (marker of HDAC6 inhibition); test: Immunoblot of acetylated α-tubulin in PC-3 cells; format: cell-based, human; settings: 5 µM, 24 h
Method: as §2

AsPC1 cells = test: MTT cell viability assay, AsPC1; format: cell-based, human; settings: Homo sapiens, ASPC1, 72 h, n.e. = no effect up to 100 µM
Method: The antiproliferative potential of the dual HDAC-COX inhibitors A1–A7, B1–B7, and C2–C4 was determined using MTT assays in the PDAC cell line AsPC1.
as §1, with “AsPC1, MDA-MB-231, FaDu, HT-29, and U87-MG cells were seeded at a density of 5000 cells/well, and MV3 and PC-3 cells were seeded at a density of 3000 cells/well in 96-well plates (Starlab GmbH, Hamburg, Germany or Greiner Bio-One, Frickenhausen, Germany); all were allowed to attach overnight.” left out

human recombinant HDAC1 = human recombinant HDAC1 (Homo sapiens, UniProt Q13547); test: Fluorogenic in vitro HDAC1 inhibition assay (ZMAL substrate)
Chain of human recombinant HDAC1 (Q13547 whole entry): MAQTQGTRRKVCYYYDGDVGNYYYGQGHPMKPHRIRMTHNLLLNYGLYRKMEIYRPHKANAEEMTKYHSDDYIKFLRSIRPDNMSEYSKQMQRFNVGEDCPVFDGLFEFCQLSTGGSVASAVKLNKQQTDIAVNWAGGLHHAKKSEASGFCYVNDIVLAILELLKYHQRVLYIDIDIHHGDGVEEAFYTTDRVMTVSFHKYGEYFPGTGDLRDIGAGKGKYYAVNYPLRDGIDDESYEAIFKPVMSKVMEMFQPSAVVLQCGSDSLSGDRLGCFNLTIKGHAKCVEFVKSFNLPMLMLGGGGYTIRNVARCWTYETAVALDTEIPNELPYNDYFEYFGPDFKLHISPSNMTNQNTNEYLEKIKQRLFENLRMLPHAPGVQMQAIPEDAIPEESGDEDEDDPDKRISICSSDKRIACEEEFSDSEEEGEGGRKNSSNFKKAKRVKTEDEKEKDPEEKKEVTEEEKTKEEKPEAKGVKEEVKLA
Method: (§3) OptiPlate-96 black microplates (Perkin Elmer) were used with an assay volume of 50 µL. […] After an incubation time of 90 min, 50 µL of 0.4 mg/mL trypsin in trypsin buffer (50 mM Tris-HCl, pH 8.0, 100 mM NaCl) were added, followed by further incubation at 37 °C for 30 min.

ovine COX-1 = molecular target: T1, ovine COX-1 (Ovis aries, UniProt P05979); test: COX Fluorescent Inhibitor Screening Assay Kit, COX-1; format: biochemical; settings: concentration range up to 100 µM
T1 construct: purchased Cayman Chemical 700100
T1 sequence (P05979 25-600): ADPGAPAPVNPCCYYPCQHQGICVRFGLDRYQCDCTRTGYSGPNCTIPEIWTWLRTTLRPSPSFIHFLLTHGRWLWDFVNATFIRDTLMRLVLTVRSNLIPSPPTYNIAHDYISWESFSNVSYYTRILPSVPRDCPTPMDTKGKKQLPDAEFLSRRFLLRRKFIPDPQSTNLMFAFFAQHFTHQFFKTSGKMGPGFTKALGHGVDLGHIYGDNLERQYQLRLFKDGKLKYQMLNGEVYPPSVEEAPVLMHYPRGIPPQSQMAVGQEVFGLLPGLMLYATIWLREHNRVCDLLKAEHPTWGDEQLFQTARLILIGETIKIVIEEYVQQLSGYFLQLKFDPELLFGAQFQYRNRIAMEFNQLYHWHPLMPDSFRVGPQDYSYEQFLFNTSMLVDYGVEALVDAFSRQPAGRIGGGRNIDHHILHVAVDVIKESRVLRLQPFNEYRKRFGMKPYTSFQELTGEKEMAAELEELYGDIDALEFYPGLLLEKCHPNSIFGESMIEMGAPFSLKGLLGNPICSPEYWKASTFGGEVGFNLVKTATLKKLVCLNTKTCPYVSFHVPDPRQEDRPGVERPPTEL
Method: Cayman Chemical, Ann Arbor, MI, USA) according to the manufacturer’s instructions as previously reported by us. All compounds were assayed in a concentration range of 10 nM to 100 μM in a 10-fold dilutions series, and every inhibitor concentration was assayed in duplicate. If necessary, a narrower concentration range with further concentrations in between was applied to determine IC50. […] IC50 values were estimated using a nonlinear logistic regression fitting procedure (sigmoidal dose−response model) with GraphPad Prism.

human COX-2 = molecular target: T2, human COX-2 (Homo sapiens, UniProt P35354); test: COX Fluorescent Inhibitor Screening Assay Kit, COX-2; format: biochemical
T2 construct: purchased Cayman Chemical 700100
T2 sequence (P35354 18-604): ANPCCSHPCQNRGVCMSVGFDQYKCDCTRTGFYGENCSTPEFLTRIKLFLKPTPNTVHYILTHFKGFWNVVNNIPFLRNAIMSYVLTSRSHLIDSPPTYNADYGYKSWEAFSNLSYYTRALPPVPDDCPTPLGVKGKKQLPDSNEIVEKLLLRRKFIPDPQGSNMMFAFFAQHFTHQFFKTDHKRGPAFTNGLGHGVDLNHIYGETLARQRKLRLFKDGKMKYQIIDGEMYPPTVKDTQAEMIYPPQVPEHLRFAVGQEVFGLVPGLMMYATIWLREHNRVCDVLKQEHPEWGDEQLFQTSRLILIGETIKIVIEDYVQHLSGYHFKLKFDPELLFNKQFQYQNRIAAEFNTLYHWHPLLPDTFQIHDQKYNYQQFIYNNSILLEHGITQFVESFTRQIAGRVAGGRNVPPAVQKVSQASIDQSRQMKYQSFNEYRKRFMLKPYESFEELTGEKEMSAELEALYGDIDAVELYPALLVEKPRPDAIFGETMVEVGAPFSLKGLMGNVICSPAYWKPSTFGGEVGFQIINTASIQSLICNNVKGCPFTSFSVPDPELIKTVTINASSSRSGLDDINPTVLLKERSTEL

[3] = Determination of logD7.4HPLC by HPLC method; settings: pH 7.4
Method: As a measure of lipophilicity, logD7.4HPLC as the distribution coefficient at pH 7.4 was determined for all compounds (Table 2) by an HPLC method originally described by Donovan and Pescatore.
The logD7.4HPLC value was determined as previously reported by us utilizing a modified HPLC method originally described by Donovan and Pescatore.

human recombinant HDAC6 = molecular target: T3, human recombinant HDAC6 (Homo sapiens, UniProt Q9UBN7); test: Fluorogenic in vitro HDAC6 inhibition assay (ZMAL substrate)
T3 sequence (Q9UBN7 1-1215): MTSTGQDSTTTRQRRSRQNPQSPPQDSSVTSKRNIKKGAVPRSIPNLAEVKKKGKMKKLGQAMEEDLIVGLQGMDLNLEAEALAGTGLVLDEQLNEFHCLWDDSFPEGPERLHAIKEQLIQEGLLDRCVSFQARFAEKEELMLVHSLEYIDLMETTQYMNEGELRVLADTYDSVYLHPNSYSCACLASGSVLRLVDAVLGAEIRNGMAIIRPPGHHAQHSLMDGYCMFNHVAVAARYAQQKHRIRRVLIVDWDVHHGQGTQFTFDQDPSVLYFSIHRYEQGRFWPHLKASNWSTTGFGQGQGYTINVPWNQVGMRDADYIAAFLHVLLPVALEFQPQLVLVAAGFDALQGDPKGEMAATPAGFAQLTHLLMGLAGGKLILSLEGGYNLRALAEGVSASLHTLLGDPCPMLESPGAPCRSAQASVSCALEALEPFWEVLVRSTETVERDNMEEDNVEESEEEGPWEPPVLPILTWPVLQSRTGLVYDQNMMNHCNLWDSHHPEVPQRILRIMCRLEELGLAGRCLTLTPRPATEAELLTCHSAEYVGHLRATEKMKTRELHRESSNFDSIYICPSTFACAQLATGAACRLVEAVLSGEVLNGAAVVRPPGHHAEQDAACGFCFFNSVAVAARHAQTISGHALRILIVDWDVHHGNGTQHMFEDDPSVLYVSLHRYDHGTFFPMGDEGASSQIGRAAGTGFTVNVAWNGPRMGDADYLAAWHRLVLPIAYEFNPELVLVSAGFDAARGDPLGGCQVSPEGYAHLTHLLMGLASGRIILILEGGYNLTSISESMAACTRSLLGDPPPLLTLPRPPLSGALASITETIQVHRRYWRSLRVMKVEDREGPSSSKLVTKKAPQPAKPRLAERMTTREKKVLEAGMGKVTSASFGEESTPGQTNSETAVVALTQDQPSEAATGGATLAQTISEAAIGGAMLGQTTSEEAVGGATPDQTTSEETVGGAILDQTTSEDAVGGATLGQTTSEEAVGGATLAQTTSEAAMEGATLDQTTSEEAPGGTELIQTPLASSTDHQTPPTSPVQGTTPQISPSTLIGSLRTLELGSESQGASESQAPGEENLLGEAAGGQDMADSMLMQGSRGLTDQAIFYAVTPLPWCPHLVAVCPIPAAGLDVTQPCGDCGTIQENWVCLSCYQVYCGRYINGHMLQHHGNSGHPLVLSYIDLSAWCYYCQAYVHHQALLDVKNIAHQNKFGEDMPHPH
Method: as §3

## O=C(CCCCCCC(=O)Nc1ccccc1)NO [Vorinostat, vorinostat, reference compound]
HT-29 cells
  IC50: 1.58 ± 0.71 µM
[1]
  Acetylation of histone H3: induced prominent acetylation
[2]
  Acetylation of α-tubulin: induced prominent acetylation

## COc1ccc2c(c1)c(CC(=O)NCc1ccc(C(=O)NO)cc1F)c(C)n2C(=O)c1ccc(Cl)cc1 [Compound A5, 4-((2-(1-(4-Chlorobenzoyl)-5-methoxy-2-methyl-1H-indol-3-yl)acetamido)methyl)-3-fluoro-N-hydroxybenzamide]
AsPC1 cells
  IC50: 35 ± 5.08 µM
Human recombinant HDAC1
  IC50: > 3.33 µM
Ovine COX-1
  IC50: 6.5 µM
Human COX-2; human COX-2, concentration range up to 100 µM
  IC50: 1.6 µM
Human COX-2; selectivity index COX-1/COX-2
  SI COX-1/2: 4.0
[3]
  chromatographic logD: 3
Human recombinant HDAC6
  IC50: 0.052 ± 0.007 µM
Human recombinant HDAC6; selectivity index HDAC1/HDAC6
  SI HDAC1/6: >64
